From patent publication US12129246B1, “Hydroquinazoline derivatives for the treatment of a disease or disorder” (Novartis AG, priority 2023, dated 2024) come the findings set out here.

Where two headings read alike, the source gives them in different places.

One assay has as its target T1, human NPR1 (Homo sapiens, UniProt P16066).
T1 construct: host or cells: CHO-K1
T1 sequence (P16066 33-1061): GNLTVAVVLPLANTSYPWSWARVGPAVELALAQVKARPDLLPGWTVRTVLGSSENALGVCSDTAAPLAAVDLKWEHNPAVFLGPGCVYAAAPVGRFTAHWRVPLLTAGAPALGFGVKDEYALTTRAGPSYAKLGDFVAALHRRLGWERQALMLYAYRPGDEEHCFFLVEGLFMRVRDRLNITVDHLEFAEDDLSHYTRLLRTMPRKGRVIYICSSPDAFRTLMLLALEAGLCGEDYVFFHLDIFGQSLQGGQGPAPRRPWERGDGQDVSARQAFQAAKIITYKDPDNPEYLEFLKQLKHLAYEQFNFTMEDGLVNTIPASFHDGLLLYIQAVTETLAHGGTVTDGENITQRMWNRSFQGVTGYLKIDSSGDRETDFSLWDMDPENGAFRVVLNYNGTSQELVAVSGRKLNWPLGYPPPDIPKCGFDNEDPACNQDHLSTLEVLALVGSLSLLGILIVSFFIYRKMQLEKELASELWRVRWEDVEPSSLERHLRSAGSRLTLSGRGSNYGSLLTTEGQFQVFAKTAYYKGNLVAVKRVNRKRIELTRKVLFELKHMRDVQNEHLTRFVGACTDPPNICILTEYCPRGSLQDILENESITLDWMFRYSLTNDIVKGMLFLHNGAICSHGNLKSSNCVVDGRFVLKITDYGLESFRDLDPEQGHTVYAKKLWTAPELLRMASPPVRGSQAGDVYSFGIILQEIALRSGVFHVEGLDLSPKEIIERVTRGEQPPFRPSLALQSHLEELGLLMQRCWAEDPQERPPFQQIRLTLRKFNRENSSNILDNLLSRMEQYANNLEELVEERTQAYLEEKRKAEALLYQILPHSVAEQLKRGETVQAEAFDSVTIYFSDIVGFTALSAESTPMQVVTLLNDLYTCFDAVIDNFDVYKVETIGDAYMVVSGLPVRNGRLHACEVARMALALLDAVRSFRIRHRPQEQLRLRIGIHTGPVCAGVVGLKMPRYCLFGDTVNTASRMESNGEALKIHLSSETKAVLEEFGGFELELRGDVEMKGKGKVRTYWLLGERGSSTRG
The assay is described as follows: Cellular cGMP production assay, human NPR1 expressing CHO-K1 cells (CisBio HTRF). The format is cell-based. The settings on record: for AC50: cGMP production, 30 min at 37° C., 12-point dose-response from 30 μM; for Human NPR1 Amax (% of ANP): maximum cGMP production as percentage of the maximum cGMP produced with ANP. How it is done:
(§1) Cellular cGMP is a major second messenger that mediates cell activities and is synthesized by activated NPR1 triggered by binding of the natural ligand ANP. […] The assay was performed according to manufacturer's instructions with minor deviations. […] All compound stocks were diluted in PBS+0.1% BSA at 2-fold the final assay concentration. After addition of 10 μL/well of assay buffer (PBS+0.1% BSA+1 mM IBMX) and 10 μL/well of the compounds in different concentrations (12-point dose-response with 3-fold dilutions from a top concentration of 30 μM), the plate was incubated for 30 min at 37° C. to allow for cGMP production. In parallel, a standard curve using a calibrator (contained in the kit) was generated. The cells were lysed and a mix of cGMP-d2 and anti-cGMP-cryptate was added and incubated for 1 h at room temperature. The readout was performed using an Envision plate reader (PerkinElmer) with an excitation wavelength of 317 nm and an emission wavelength of 665 nm. cGMP concentration (Delta F [° %]) was calculated according to the following formulae: […]
For orientation: TR-FRET usually uses a lanthanide donor and a delayed reading to cut background.

The next assay addresses monkey NPR1 (Macaca fascicularis, UniProt A0A7N9DBT9). The assay is described as follows: Cellular cGMP production assay, monkey NPR1 expressing CHO-K1 cells (CisBio HTRF). Format: cell-based. The settings on record: for Monkey NPR1 Amax (% of ANP): maximum cGMP production as percentage of the maximum cGMP produced with ANP. How it is done:
as §1

The mark [1] stands for this setting: cGMP production, monkey NPR1 CHO-K1 cells, 30 min at 37° C., 12-point dose-response from 30 μM, read-out: Monkey NPR1 AC50.

Chain of monkey NPR1 (A0A7N9DBT9 entry or part of it): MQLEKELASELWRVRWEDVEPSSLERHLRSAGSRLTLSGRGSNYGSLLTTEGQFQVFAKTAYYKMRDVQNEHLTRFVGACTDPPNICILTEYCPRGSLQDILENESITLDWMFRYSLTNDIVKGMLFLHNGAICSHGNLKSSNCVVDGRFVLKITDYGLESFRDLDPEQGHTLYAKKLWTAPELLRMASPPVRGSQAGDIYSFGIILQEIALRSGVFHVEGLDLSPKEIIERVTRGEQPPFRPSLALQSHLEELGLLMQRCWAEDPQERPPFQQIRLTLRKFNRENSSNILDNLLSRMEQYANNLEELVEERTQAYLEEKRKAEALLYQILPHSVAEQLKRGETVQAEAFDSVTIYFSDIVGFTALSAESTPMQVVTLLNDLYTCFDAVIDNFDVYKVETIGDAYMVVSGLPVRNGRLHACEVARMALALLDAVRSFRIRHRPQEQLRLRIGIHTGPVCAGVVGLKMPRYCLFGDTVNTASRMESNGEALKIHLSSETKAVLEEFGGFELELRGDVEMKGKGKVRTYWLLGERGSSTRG

Broadly, the AC50 is the midpoint of the concentration-response curve, whichever way the signal moves. Take `CC[C@H]([C@H]1CC[C@H](C(=O)O)CC1)N(C)c1nc2c(c(N[C@@H](CN3C4CCCC3CC4)c3cnn(C)c3C)n1)C[C@H](c1cccc(F)c1)CC2` [Compound 16, (1R,4r)-4-((1R)-1-(((6R)-4-(((1R)-2-(8-azabicyclo[3.2.1]octan-8-yl)-1-(1,5-dimethyl-1H-pyrazol-4-yl)ethyl)amino)-6-(3-fluorophenyl)-5,6,7,8-tetrahydroquinazolin-2-yl)(methyl)amino)propyl)cyclohexane-1-carboxylic acid]: on human NPR1, the AC50 is 0.103 µM and the “Human NPR1 Amax (% of ANP)” value is given as 100.021 % of ANP. At monkey NPR1, the activity was half-maximal at 0.047 µM (AC50). At monkey NPR1 (monkey NPR1 CHO-K1 cells), the “Monkey NPR1 Amax (% of ANP)” value is 98.785 % of ANP.

Turning to `CC[C@H]([C@H]1CC[C@H](C(=O)O)CC1)N(C)c1nc2c(c(N[C@@H](CN3C4CCC3CC4)c3cnn(C)c3)n1)C[C@H](c1cccc(F)c1)CC2` [Compound 57, (1R,4r)-4-((R)-1-(((R)-4-(((R)-2-(7-azabicyclo[2.2.1]heptan-7-yl)-1-(1-methyl-1H-pyrazol-4-yl)ethyl)amino)-6-(3-fluorophenyl)-5,6,7,8-tetrahydroquinazolin-2-yl)(methyl)amino)propyl)cyclohexane-1-carboxylic acid], at human NPR1, the activity was half-maximal at 0.199 µM (AC50) and the “Human NPR1 Amax (% of ANP)” value is recorded as 101.340 % of ANP. This compound showed an AC50 at monkey NPR1 of 0.082 µM. For the same compound, the “Monkey NPR1 Amax (% of ANP)” value at monkey NPR1 (monkey NPR1 CHO-K1 cells) is reported as 103.000 % of ANP.

Take `CC[C@@H](N(C)c1nc2c(c(N[C@@H](CN3C4CCCC3CC4)c3cnc(C)s3)n1)C[C@H](c1cccc(F)c1)CC2)C12CC(C(=O)O)(C1)C2` [Compound 77, 3-((1R)-1-(((6R)-4-(((1S)-2-(8-azabicyclo[3.2.1]octan-8-yl)-1-(2-methylthiazol-5-yl)ethyl)amino)-6-(3-fluorophenyl)-5,6,7,8-tetrahydroquinazolin-2-yl)(methyl)amino)propyl)bicyclo[1.1.1]pentane-1-carboxylic acid]: on human NPR1, the activity was half-maximal at 0.249 µM (AC50) and the “Human NPR1 Amax (% of ANP)” value was 95.666 % of ANP. The compound also showed a concentration at half-maximal activity (AC50) on monkey NPR1 of 0.134 µM. The “Monkey NPR1 Amax (% of ANP)” value at monkey NPR1 (monkey NPR1 CHO-K1 cells) is recorded as 96.715 % of ANP.

With `CC[C@@H](Nc1nc2c(c(N[C@@H](CN3C4CCCC3CCC4)c3cnn(C)c3)n1)C[C@H](c1ccccc1)CC2)[C@H]1CC[C@H](C(=O)O)CC1` [Compound 59, (1R,4r)-4-((R)-1-(((R)-4-(((R)-2-((1S,5S)-9-azabicyclo[3.3.1]nonan-9-yl)-1-(1-methyl-1H-pyrazol-4-yl)ethyl)amino)-6-phenyl-5,6,7,8-tetrahydroquinazolin-2-yl)amino)propyl)cyclohexane-1-carboxylic acid], at human NPR1, the concentration at half-maximal activity (AC50) came to 0.205 µM and the “Human NPR1 Amax (% of ANP)” value was 99.614 % of ANP. Further, the AC50 at monkey NPR1 came out at 0.153 µM. At monkey NPR1 (monkey NPR1 CHO-K1 cells), the “Monkey NPR1 Amax (% of ANP)” value is reported as 104.401 % of ANP.

For the compound `CC[C@@H](Nc1nc2c(c(N[C@@H](CN3CCCCC3)c3cnn(CC)c3)n1)C[C@@H](c1cccc(F)c1)CC2)[C@H]1CC[C@H](C(=O)O)CC1` [Compound 50, (1R,4r)-4-((R)-1-(((S)-4-(((R)-1-(1-ethyl-1H-pyrazol-4-yl)-2-(piperidin-1-yl)ethyl)amino)-6-(3-fluorophenyl)-5,6,7,8-tetrahydroquinazolin-2-yl)amino)propyl)cyclohexane-1-carboxylic acid], on human NPR1, the AC50 was found to be 0.187 µM and the “Human NPR1 Amax (% of ANP)” value is 93.357 % of ANP. Further, at monkey NPR1 (setting [1]), the AC50 was 0.135 µM. The “Monkey NPR1 Amax (% of ANP)” value on monkey NPR1 (monkey NPR1 CHO-K1 cells) is on record as 107.881 % of ANP.

Regarding `CC[C@H]([C@H]1CC[C@H](C(=O)O)CC1)N(C)c1nc2c(c(N[C@@H](CN3CCCCC3)c3cnn(C)c3)n1)CN(c1cccc(F)c1)CC2` [Compound 157, (1R,4r)-4-((R)-1-((6-(3-fluorophenyl)-4-(((R)-1-(1-methyl-1H-pyrazol-4-yl)-2-(piperidin-1-yl)ethyl)amino)-5,6,7,8-tetrahydropyrido[4,3-d]pyrimidin-2-yl)(methyl)amino)propyl)cyclohexane-1-carboxylic acid], on human NPR1, half-maximal activity (AC50) was put at 1.43 µM and the “Human NPR1 Amax (% of ANP)” value is 99.549 % of ANP. The AC50 at monkey NPR1 (setting [1]) came to 0.999 µM. On monkey NPR1 (monkey NPR1 CHO-K1 cells), the “Monkey NPR1 Amax (% of ANP)” value is on record as 105.667 % of ANP.
